The values that follow come from article PMC6222307, “Phenanthrenes from Juncus Compressus Jacq. with Promising Antiproliferative and Anti-HSV-2 Activities” (Molecules : A Journal of Synthetic Chemistry and Natural …, 2018).

Read-outs that look alike come from different tables or passages of the source.

For series [1], the system named is HeLa cells. Also on record: method as in PMID 23979834. To be noted: read-out: cytotoxic activity; cited from earlier work.
Series [2] deals with MCF-7 cells. Also on record: method as in PMID 23979834. To be noted: read-out: cytotoxic activity; cited from earlier work.
For series [3], the system named is MCF-7 cells. Also on record: method as in PMID 26584913. The note with it: cited from earlier work.
The next series relates to SiHa cells. The series can be described thus: MTT antiproliferative assay, SiHa. It counts as cell-based, human. The note with it: 72 h; for inhibition at 10 µM / inhibition at 30 µM: Homo sapiens, read-out: Growth Inhibition (%) ± SEM. Here is the method: (§1) The isolated phenanthrenes (Compounds 1–9) were tested for their antiproliferative activity against three human tumor cell lines (HeLa and SiHa (cervix adenocarcinoma) and A2780 (ovarian carcinoma)) using the 3-(4,5-dimethylthiazol-2-yl)-2,5-diphenyltetrazolium bromide (MTT) test with cisplatin as a positive control (Table 3). […] Based on the presented results, some structure-activity relationships could be obtained. […] Compounds bearing free hydroxy groups (in case of Compound 3) exerted more pronounced action than its methyl ether (Compound 7) or its oxymethylene derivative (Compound 6). The substantial difference in the activities of the isolated dimers (Compounds 2 and 8) could be attributed to the presence of a methyl group at C-6, which is favored in the monomers, too. Both the other cell lines were substantially less sensitive. […] Similarly, none of the presented agents elicited substantial (>40%) inhibition of the cell cancer proliferation during the applied 72 h of incubation against SiHa cells at 10 μM, and therefore, IC50 values were not determined.
(§2) The antiproliferative properties of the isolated phenanthrenes were determined on a panel of human malignant cell lines isolated from cervical (HeLa and SiHa) and ovarian cancers (A2780) purchased from the European Collection of Cell Cultures (ECCAC, Salisbury, UK). Cells were cultivated in minimal essential medium supplemented with 10% fetal bovine serum, 1% non-essential amino acids and an antibiotic-antimycotic mixture. All media and supplements were obtained from Lonza Group Ltd., (Basel, Switzerland). Near-confluent cancer cells were seeded onto a 96-well microplate (5000 cells/well) and after an overnight standing, medium containing the tested compounds at 10 and 30 µM was added. After incubation for 72 h under cell culture conditions, the living cells were assayed by the addition of 20 µL of 5 mg/mL 3-(4,5-dimethylthiazol-2-yl)-2,5-diphenyltetrazolium bromide (MTT) solution. MTT was converted by intact mitochondrial enzymes and precipitated as purple crystals during a 4 h contact period. The medium was then removed and the formazan was dissolved in 100 µL of DMSO during a 60 min period of shaking at 37 °C. Finally, the reduced MTT was assayed at 545 nm using a microplate reader. […] All in vitro experiments were carried out on two microplates with five parallel wells. Stock solutions of the tested compounds (10 mM) were prepared in DMSO. […] Cisplatin (Ebewe Pharma GmbH, Unterach, Austria) was used as a reference agent.

In another series the test system is A2780 cells. The series can be described thus: MTT antiproliferative assay, A2780. It counts as cell-based, human. To be noted: for IC50: read-out: Calculated IC50 Value; for inhibition at 10 µM / inhibition at 30 µM: read-out: Growth Inhibition (%) ± SEM. Here is the method: as §1, §2
Series [4] concerns HeLa cells. The series is described as follows: MTT antiproliferative assay, HeLa. It counts as cell-based, human. To be noted: 72 h; for IC50: read-out: Calculated IC50 Value; for inhibition at 10 µM / inhibition at 30 µM: read-out: Growth Inhibition (%) ± SEM. Here is the method:
as §1, §2

The test system of series [5] is HeLa cells. Also on record: method as in PMID 26584913. To be noted: cited from earlier work.
Series [6] concerns HepG2 (liver hepatocellular carcinoma). Also on record: method as in PMID 26584913. The note with it: cited from earlier work.
A further series has as its system HSV-2. Also on record: method as in PMID 11463529. To be noted: 6.25 µM; cited from earlier work.
Another series concerns MCF-7. Also on record: method as in PMID 26072042. The note with it: MCF-7, CCK-8 assay; cited from earlier work.
For a further series, the system named is SMMC-7721. Also on record: method as in PMID 26072042. To be noted: SMMC-7721, CCK-8 assay; cited from earlier work.
The next series relates to HepG2. Also on record: method as in PMID 26072042. To be noted: HepG2, CCK-8 assay; cited from earlier work.
The mark [7] stands for this setting: Homo sapiens, A2780, 10 μM, 72 h, MTT.
The mark [8] stands for this setting: Homo sapiens, A2780, 30 μM, 72 h, MTT.

Regarding `Cc1c(O)ccc2c1CCc1cc(O)cc(C=O)c1-2` [2,7-dihydroxy-1-methyl-5-aldehyde-9,10-dihydrophenanthrene], the IC50 in the series with HeLa cells [1] is 19.6 µM; in the series with MCF-7 cells [2], 9.17 µM.

`COC(C)c1cc(O)cc2ccc3c(C)c(O)ccc3c12` (stereo not drawn) [5-(1-methoxyethyl)-1-methyl-phenanthren-2,7-diol]: the IC50 in the series on MCF-7 cells [3] is 10.9 µM.

For `N.N.[Cl][Pt][Cl]` [Cisplatin, reference compound], the “Growth Inhibition (%) ± SEM” value in the series on SiHa cells (10 μM, MTT) was determined as 88.64 ± 0.50%; in the series with SiHa cells (30 μM, MTT) it was 90.18 ± 7.78%; with A2780 cells (A2780, 10 μM, 72 h, MTT) it was 83.57 ± 1.21%; in the series on A2780 cells (A2780, 30 μM, 72 h, MTT) it was 95.02 ± 0.28%; in the series on HeLa cells [4] (10 μM, MTT), 42.61 ± 2.33%; in the series on HeLa cells [4] (30 μM, MTT), 99.93 ± 0.26%. Further, the IC50 with SiHa cells (MTT, read-out: Calculated IC50 Value) is 7.84 µM; with A2780 cells (A2780, 72 h, MTT), 1.3 µM; in the series on HeLa cells [4] (MTT), 12.4 µM.

For `C=Cc1c(C)c(O)cc2c1-c1ccc(OC)c(C)c1CC2` [Compound 1, compressin A], the inhibition at 10 µM was under 10% with SiHa cells (10 μM, MTT); 47.6 ± 1.58% in the series with A2780 cells (setting [7]); 41.7 ± 1.1% in the series on HeLa cells [4] (Homo sapiens, 10 μM, MTT). In addition, the inhibition at 30 µM in the series with SiHa cells (30 μM, MTT) is 38.6 ± 0.78%; in the series with A2780 cells (setting [8]), 73 ± 0.47%; in the series on HeLa cells [4] (Homo sapiens, 30 μM, MTT), 93.73 ± 0.36%. Besides, the IC50 in the series on A2780 cells (Homo sapiens, A2780, 72 h, MTT) was 13.2 µM; in the series on HeLa cells [4] (Homo sapiens, MTT) it was 11.3 µM.

For the molecule `C=Cc1c(C)c(O)cc2c1-c1cc(-c3cc4c(c(C)c3O)CCc3cc(O)c(C)c(C=C)c3-4)c(O)c(C)c1CC2` [Compound 2, compressin B], the inhibition at 10 µM in the series with SiHa cells (10 μM, MTT) was under 10%; in the series on A2780 cells (setting [7]), under 10%; with HeLa cells [4] (Homo sapiens, 10 μM, MTT) it was 92.03 ± 0.44%. Besides, the inhibition at 30 µM in the series with SiHa cells (30 μM, MTT) is 32.8 ± 0.88%; with A2780 cells (setting [8]), 64.8 ± 1.95%; in the series on HeLa cells [4] (Homo sapiens, 30 μM, MTT), 92.38 ± 0.15%. For the same molecule, in the series with HeLa cells [4] (Homo sapiens, MTT), the IC50 was 1.86 µM.

As for `C=Cc1cc(O)cc2c1-c1ccc(O)c(C)c1CC2` [Compound 3, effusol], the inhibition at 10 µM with SiHa cells (10 μM, MTT) was under 10%; with A2780 cells (setting [7]), under 10%; in the series with HeLa cells [4] (Homo sapiens, 10 μM, MTT), 96.37 ± 0.28%. Further, the inhibition at 30 µM in the series on SiHa cells (30 μM, MTT) is under 10%; with A2780 cells (setting [8]), 50.5 ± 1.59%; with HeLa cells [4] (Homo sapiens, 30 μM, MTT) it was 97.77 ± 0.27%. In addition, in the series on HeLa cells [4] (Homo sapiens, MTT), the IC50 is 3.68 µM.

With `COC(C)c1cc(O)cc2c1-c1ccc(O)c(C)c1CC2` (stereo not drawn) [Compound 4, effususol], the inhibition at 10 µM in the series with SiHa cells (10 μM, MTT) was under 10%; in the series on A2780 cells (setting [7]) it was 18.3 ± 0.42%; with HeLa cells [4] (Homo sapiens, 10 μM, MTT) it was under 10%. The inhibition at 30 µM in the series on SiHa cells (30 μM, MTT) is 14.2 ± 2.75%; in the series on A2780 cells (setting [8]), 72 ± 1.06%; in the series on HeLa cells [4] (Homo sapiens, 30 μM, MTT), 30.4 ± 1.91%.

For the molecule `C=Cc1cc(CO)cc2c1-c1ccc(O)c(C)c1CC2` [Compound 6, 2-hydroxy-1-methyl-7-oxymethylene-5-vinyl-9,10-dihydrophenanthrene], the inhibition at 10 µM was under 10% in the series with SiHa cells (10 μM, MTT); under 10% with A2780 cells (setting [7]); 96.8 ± 0.28% in the series with HeLa cells [4] (Homo sapiens, 10 μM, MTT). The inhibition at 30 µM is 10.2 ± 1.47% with SiHa cells (30 μM, MTT); under 10% in the series with A2780 cells (setting [8]); 98.77 ± 0.24% with HeLa cells [4] (Homo sapiens, 30 μM, MTT). Moreover, the IC50 with HeLa cells [4] (Homo sapiens, MTT) was 4.17 µM.

Consider `C=Cc1cc(O)cc2c1-c1ccc(OC)c(C)c1CC2` [Compound 7, 7-hydroxy-1-methyl-2-methoxy-5-vinyl-9,10-dihydrophenanthrene], for which the inhibition at 10 µM in the series with SiHa cells (10 μM, MTT) is 14.2 ± 0.98%; with A2780 cells (setting [7]) it was under 10%; in the series with HeLa cells [4] (Homo sapiens, 10 μM, MTT) it was 45.4 ± 1.57%. The inhibition at 30 µM in the series with SiHa cells (30 μM, MTT) is 29.5 ± 3.36%; in the series on A2780 cells (setting [8]), 63.2 ± 2.54%; in the series with HeLa cells [4] (Homo sapiens, 30 μM, MTT), 92.36 ± 0.23%. In addition, the IC50 in the series with HeLa cells [4] (Homo sapiens, MTT) was 10.7 µM.

Take `C=Cc1cc(O)cc2c1-c1cc(-c3cc4c(c(C)c3O)CCc3cc(O)cc(C=C)c3-4)c(O)c(C)c1CC2` [Compound 8, effususin A]: the inhibition at 10 µM was under 10% with SiHa cells (10 μM, MTT); under 10% in the series with A2780 cells (setting [7]); under 10% in the series on HeLa cells [4] (Homo sapiens, 10 μM, MTT). For the same molecule, the inhibition at 30 µM amounted to 14.4 ± 1.48% in the series with SiHa cells (30 μM, MTT); 72.7 ± 1.82% with A2780 cells (setting [8]); 10.4 ± 0.47% in the series with HeLa cells [4] (Homo sapiens, 30 μM, MTT).

For `C=Cc1cc(O)cc2ccc3c(C)c(O)ccc3c12` [Compound 9, dehydroeffusol], the inhibition at 10 µM in the series with SiHa cells was under 10%; with A2780 cells (Homo sapiens, A2780, 72 h) it was under 10%; in the series with HeLa cells [4] (Homo sapiens) it was 75.2 ± 2.48%. Besides, the inhibition at 30 µM was 28.7 ± 2.01% with SiHa cells; 57.3 ± 2.58% in the series on A2780 cells (Homo sapiens, A2780, 72 h); 96.5 ± 0.32% in the series on HeLa cells [4] (Homo sapiens). The IC50 with HeLa cells [4] (Homo sapiens) was 7.75 µM.

On to `Cc1c(O)ccc2c1ccc1cc(O)cc(C=O)c12` [Dehydroeffusal], for which the IC50 in the series with HeLa cells [5] was 13.1 µM; in series [6], 12.4 µM.

`Nc1nc2c(ncn2COCCO)c(=O)[nH]1` [acyclovir]: the “reduction of HSV-2 yield” value with HSV-2 is given as 1–5.06 log10.

Consider `COc1cccc2c1C(=O)c1c(O)c3c(c(O)c1C2=O)C[C@@](O)(C(=O)CO)C[C@@H]3O[C@H]1C[C@H](N)[C@H](O)[C@H](C)O1` [adriamycin, reference compound], for which the IC50 in the series with HeLa cells [1] is 0.539 µM; in the series with MCF-7 cells [2] it was 0.406 µM.

Regarding `C=Cc1cc(O)cc2c1-c1cc(-c3c(O)cc(C=C)c4c3ccc3c(C)c(O)ccc34)c(O)c(C)c1CC2` [effususin B], the values for the IC50 in the series on MCF-7, in the series on SMMC-7721 and in the series on HepG2 were 12.5 µM, 13.6 µM and 12.9 µM, respectively.

For `CC(=O)O[C@H]1C(=O)[C@@]2(C)[C@H]([C@H](OC(=O)c3ccccc3)[C@]3(O)C[C@H](OC(=O)[C@H](O)[C@@H](NC(=O)c4ccccc4)c4ccccc4)C(C)=C1C3(C)C)[C@]1(OC(C)=O)CO[C@@H]1C[C@@H]2O` [paclitaxel, reference compound], the results for the IC50 in the series with MCF-7, with SMMC-7721 and with HepG2 were 28.6 µM, 0.09 µM and 36.8 µM, respectively.
